# In US6207172A, “Composition for the delivery of a pharmaceutical agent to a patient” (Warner-Lambert Company, priority 1998, dated 2001):
# Like-named read-outs stand apart in the source and are kept apart here.
# Key:
# [1] = Mean particle size of the PEG/PVP formulation after filtration; format: physicochemical; conditions: diameter; PEG 3350/10% PVP pH 7.4 phosphate buffer formulation, filtered through 0.45 μm PTFE filter
# Procedure: After formation of the composition for delivering a pharmaceutical agent to a patient, the composition has been successfully extruded through both 0.45 and […] nylon filters, yielding a particle size of around 500 or 300 nm, respectively. In addition, the compositions can be autoclaved. The compositions have also been freeze dried and can be reconstituted by the addition of water or a buffer.
# To the melted phase were then added 3 mL of 10% PVP in pH 7.4 phosphate buffer with stirring. The mixture was stirred during cool-down to room temperature. Before administration, the formulation was filtered through a 0.45 μm PTFE filter. […] The final concentration was calculated to be 10 mg/mL.
# Butyl-[2,5-dimethyl-7-(2,4,6-trimethyl-phenyl)-7H-pyrrolo[2,3-d]pyrimidin-4-yl]-ethyl-amine (CRF-1 receptor antagonist) was formulated in the PEG/PVP system as follows. Thirty milligrams of Butyl-[2,5-dimethyl-7-(2,4,6-trimethyl-phenyl)-7H-pyrrolo[2,3-d]pyrimidin- 4-yl]-ethyl-amine were dissolved in 1.5 g of molten (65° C.) PEG 3350. To the melted phase were then added 1.5 mL of 10% PVP in pH 7.4 phosphate buffer with stirring. The mixture was stirred during cool-down to room temperature. Before administration, the formulation was filtered through a 0.45 μm PTFE filter. […] The final concentration was calculated to be 10 mg/mL.
# [2] = Oral pharmacokinetics in fasted male Wistar rats; format: in vivo; conditions: for AUC(0-t) at 8 h / Cmax: rat, blood, po, 10 mg/kg, fasted male Wistar rats
# Procedure: Single, 10-mg/kg oral gavage doses of the Butyl-[2,5-dimethyl-7-(2,4,6-trimethyl-phenyl)-7H-pyrrolo[2,3-d]pyrimidin- 4-yl]-ethyl-amine PEG/PVP formulation were given to 3 fasted male Wistar rats. In parallel, single, 10-mg/kg oral gavage doses of Butyl-[2,5-dimethyl-7-(2,4,6-trimethyl-phenyl)-7H-pyrrolo[2,3-d]pyrimidin- 4-yl]-ethyl-amine, as an aqueous suspension in 0.1% Tween 80, were administered to 3 additional fasted male Wistar rats. Blood samples were serially drawn over the 24-hour period following administration and assayed for Butyl-[2,5-dimethyl-7-(2,4,6-trimethyl-phenyl)-7H-pyrrolo[2,3-d]pyrimidin- 4-yl]-ethyl-amine concentrations.
# tumor-bearing mice [3] = test: Tumor growth inhibition in tumor-bearing mice (change in tumor size from Day 1); format: in vivo; conditions: PEG/PVP 200 mg/kg daily vs DMA/lactate 400 mg/kg (200 mg/kg twice daily), oral gavage, 10 days
# Description: (§1) Single, 200-mg/kg daily oral gavage doses of the PEG/PVP formulation were given to 3 tumor-bearing mice for 10 days.
# tumor-bearing mice [4] = test: Deaths of tumor-bearing mice during 10 days oral gavage dosing; format: in vivo; conditions: 3 mice
# Description: as §1
# [5] = PEG/PVP emulsion vs 0.1% Tween 80 suspension, 10 mg/kg oral
"AUC(0-t) at 8 h ([2]; PEG/PVP emulsion, 10 mg/kg single oral gavage, read-out: AUC(0-8), PEG/PVP-dosed rats) [ng·h/mL]","Cmax ([2]; PEG/PVP emulsion, 10 mg/kg single oral gavage, read-out: Mean Cmax, PEG/PVP emulsion group) [ng/mL]","AUC(0-t) at 8 h ([2]; aqueous suspension in 0.1% Tween 80, 10 mg/kg single oral gavage, read-out: AUC(0-8), suspension-dosed) [ng·h/mL]","Cmax ([2]; aqueous suspension in 0.1% Tween 80, 10 mg/kg single oral gavage, read-out: Mean Cmax, 0.1% Tween group) [ng/mL]",SMILES,Mean particle size [1],"AUC(0-8), difference between the 2 dose groups [2, 5]","Cmax, difference between the 2 dose groups [2, 5]","half-life, difference between the 2 dose groups [2, 5]","Tumor growth inhibition, ratio PEG/PVP emulsion to DMA/lactate preparation (tumor-bearing mice [3]) [fold]","mice that died, DMA/lactate system (tumor-bearing mice [4]; DMA/lactate, 400 mg/kg (200 mg/kg oral gavage twice daily))","mice that died, PEG/PVP preparation (tumor-bearing mice [4]; PEG/PVP, 200 mg/kg daily oral gavage)"
283,283,267,267,"CCCCN(CC)c1nc(C)nc2c1c(C)cn2-c1c(C)cc(C)cc1C [Butyl-[2,5-dimethyl-7-(2,4,6-trimethyl-phenyl)-7H-pyrrolo[2,3-d]pyrimidin-4-yl]-ethyl-amine]",approximately 420 nm,"Neither Cmax, AUC(0-8), nor half-life differed significantly between the 2 dose groups","Neither Cmax, AUC(0-8), nor half-life differed significantly between the 2 dose groups","Neither Cmax, AUC(0-8), nor half-life differed significantly between the 2 dose groups",,,
,,,,"CNc1cc2c(Nc3cccc(Br)c3)ncnc2cn1 [N^4-(3-Bromo-phenyl)-N^6-methyl-pyrido[3,4-d]pyrimidine-4,6-diamine]",approximately 400 nm,,,,4,all 3 mice dosed with the DMA/lactate system died,None of the mice given the PEG/PVP preparation died
